Read-outs that look alike come from different tables or passages of the source.
Experiments:
Venturia inaequalis = experiment: Venturia test (apple)/protective; format: in vivo; details: application rate 100 g/ha, protective, evaluation 10 days after inoculation
Method: Venturia Test (Apple)/Protective
(§1) • 24.5 parts by weight of acetone • 24.5 parts by weight of dimethylacetamide Emulsifier: • 1.0 part by weight of alkylaryl polyglycol ether
(§2) To produce a suitable preparation of active compound, 1 part by weight of active compound is mixed with the stated amounts of solvents and emulsifier, and the concentrate is diluted with water to the desired concentration.
To test for protective activity, young plants are sprayed with the preparation of active compound at the stated application rate. After the spray coating has dried on, the plants are inoculated with an aqueous conidia suspension of the apple scab pathogen Venturia inaequalis and then remain in an incubation cabin at about 20° C. in 100% relative atmospheric humidity for 1 day.
The plants are then placed in a greenhouse at about 21° C. and a relative atmospheric humidity of about 90%.
(§3) Evaluation is carried out 10 days after the inoculation. 0% means an efficacy which corresponds to that of the control, whereas an efficacy of 100% means that no infection is observed.

Sphaerotheca fuliginea = experiment: Sphaerotheca test (cucumber)/protective; format: in vivo; details: Podosphaera fuliginea, 168 h, application rate 100 g/ha, protective, evaluation 7 days after inoculation, read-out: Efficacy in %
Method: Sphaerotheca Test (Cucumber)/Protective
as §1, §2
(§4) To test for protective activity, young plants are sprayed with the preparation of active compound at the stated application rate. After the spray coating has dried on, the plants are inoculated with an aqueous spore suspension of Sphaerotheca fuliginea. The plants are then placed in a greenhouse at about 23° C. and a relative atmospheric humidity of about 70%.
(§5) Evaluation is carried out 7 days after the inoculation. 0% means an efficacy which corresponds to that of the control, whereas an efficacy of 100% means that no infection is observed.

[1] = logP determination by HPLC on reversed-phase column (EEC Directive 79/831 Annex V.A8); format: physicochemical; details: pH 2.3, C18, 43° C., 0.1% aqueous phosphoric acid/acetonitrile, read-out: logP (pH2.3)
Method: The logP values given in the Preparation Examples were determined in accordance with EEC Directive 79/831 Annex V.A8 by HPLC (High Performance Liquid Chromatography) using a reversed-phase column (C 18). Temperature: 43° C.
Mobile phases for the determination in the acidic range: 0.1% aqueous phosphoric acid, acetonitrile; linear gradient from 10% acetonitrile to 90% acetonitrile.
Calibration was carried out using unbranched alkan-2-ones (having 3 to 16 carbon atoms) with known logP values (determination of the logP values by the retention times using linear interpolation between two successive alkanones).

Podosphaera leucotricha = experiment: Podosphaera test (apple)/protective; format: in vivo; details: application rate 100 g/ha, protective, evaluation 10 days after inoculation
Method: Podosphaera Test (Apple)/Protective
as §1, §2
as §4, with “the apple mildew pathogen Podosphaera leucotricha.” for “Sphaerotheca fuliginea.”
as §3

Alternaria solani = experiment: Alternaria test (tomato)/protective; format: in vivo; details: application rate 750 g/ha, protective, evaluation 7 days after inoculation
Method: Alternaria Test (Tomato)/Protective
• 49 parts by weight of N,N-dimethylformamide Emulsifier: • 1 part by weight of alkylaryl polyglycol ether
(§6) To produce a suitable preparation of active compound, 1 part by weight of active compound is mixed with the stated amounts of solvent and emulsifier, and the concentrate is diluted with water to the desired concentration.
To test for protective activity, young tomato plants are sprayed with the preparation of active compound at the stated application rate. 1 day after the treatment, the plants are inoculated with a spore suspension of Alternaria solani and then remain at 100% relative humidity and at 20° C. for 24 h. The plants then remain at 96% relative atmospheric humidity and a temperature of 20° C.
as §5

Coriolus versicolor = experiment: Inhibitory test using a giant colony of Basidiomycetes; format: cell-based; details: Trametes versicolor; 6 ppm active compound in nutrient agar; 26° C.; growth of fungal threads
Method: Inhibitory Test Using a Giant Colony of Basidiomycetes Mycelium pieces were punched out of a giant colony of the Basidiomycetes species Coriolus versicolor and incubated at 26° C. on a nutrient agar medium containing malt extract peptone. The inhibition of the growth of the fungal threads on active-compound-containing nutrient media was compared to the longitudinal growth on nutrient media without added active compound and rated as inhibition in percent. In this test, for example, the following compounds according to the invention of the Preparation Examples show good activity: […]

Puccinia recondita = experiment: Puccinia test (wheat)/protective; format: in vivo; details: application rate 500 g/ha, protective, evaluation 10 days after inoculation
Method: Puccinia Test (Wheat)/Protective
• 25 parts by weight of N,N-dimethylacetamide Emulsifier: • 0.6 part by weight of alkylaryl polyglycol ether
as §6
To test for protective activity, young plants are sprayed with the preparation of active compound at the stated application rate. After the spray coating has dried on, the plants are sprayed with a conidia suspension of Puccinia recondita. The plants remain in an incubation cabin at 20° C. and 100% relative atmospheric humidity for 48 hours.
The plants are then placed in a greenhouse at a temperature of about 20° C. and a relative atmospheric humidity of 80% to promote the development of rust pustules.
as §3

SMILES | chromatographic logP ([1]; reversed-phase C18 HPLC column) | Efficacy in % (Venturia inaequalis) | pest or weed control at 100 g/ha (Sphaerotheca fuliginea) | Efficacy in % (Podosphaera leucotricha) | chromatographic logP [1] | Efficacy in % (Alternaria solani) | inhibition at 6 ppm (Coriolus versicolor) | Efficacy in % (Puccinia recondita)
O=C(Nc1ccccc1-c1ccc2c(c1)OC(F)(F)C(F)(F)O2)c1ccccc1C(F)(F)F [Example 6] | – | 99% | 100% | 100% | 5.93 | – | – | –
Cc1nn(C)c(F)c1C(=O)Nc1c(F)cc(F)cc1-c1ccc2c(c1)OCO2 [Example 15] | 2.34 | – | – | – | – | 95% | – | –
OB(O)c1ccc2c(c1)OC(F)(F)C(F)(F)O2 [Example (V-1), 2,2,3,3-tetrafluoro-2,3-dihydro-1,4-benzodioxin-6-yl-boronic acid] | 2.49 | – | – | – | – | – | – | –
O=C(Nc1ccccc1-c1ccc2c(c1)OC(F)(F)O2)c1ccccc1C(F)(F)F [Example 3] | – | – | 98% | 100% | 3.94 | 94% | – | –
Cn1cc(C(=O)Nc2ccccc2I)c(C(F)(F)F)n1 [Example (IV-1), N-(2-iodophenyl)-1-methyl-3-(trifluoromethyl)-1H-pyrazole-4-carboxamide] | 2.46 | – | – | – | – | – | – | –

More lines, main results first:

chromatographic logP ([1]; reversed-phase C18 HPLC column) | SMILES | Efficacy in % (Venturia inaequalis) | pest or weed control at 100 g/ha (Sphaerotheca fuliginea) | Efficacy in % (Podosphaera leucotricha) | chromatographic logP [1] | Efficacy in % (Alternaria solani) | inhibition at 6 ppm (Coriolus versicolor) | Efficacy in % (Puccinia recondita)
3.99 | Cc1ccsc1C(=O)Nc1ccccc1-c1ccc2c(c1)OC(F)(F)O2 [Example 4] | 98% | 100% | – | – | – | – | –
3.81 | Cc1nc(C(F)(F)F)c(C(=O)Nc2ccccc2-c2ccc3c(c2)OC(F)(F)O3)s1 [Example 5] | 100% | 100% | 100% | – | – | – | –
3.22 | Cc1nn(C)c(F)c1C(=O)Nc1ccccc1-c1ccc2c(c1)OC(F)(F)O2 [Example 19] | 96% | 92% | 100% | – | – | 100% | –
3.37 | Cn1cc(C(=O)Nc2ccccc2-c2ccc3c(c2)OC(F)(F)O3)c(C(F)(F)F)n1 [Example 2, N-[2-(2,2-difluoro-1,3-benzodioxol-5-yl)-phenyl]-1-methyl-3-(trifluoromethyl)-1H-pyrazol-4-carboxamide] | 100% | 100% | 100% | – | 100% | – | –
3.94 | Cc1nc(C(F)(F)F)c(C(=O)Nc2ccccc2-c2ccc3c(c2)OC(F)(F)C(F)(F)O3)s1 [Example 10] | 100% | 100% | 100% | – | – | – | –
3.77 | Cc1nn(C)c(F)c1C(=O)Nc1ccccc1-c1ccc2c(c1)OC(F)(F)C(F)(F)O2 [Example 1, 5-fluoro-1,3-dimethyl-N-[2-(2,2,3,3-tetrafluoro-2,3-dihydro-1,4-benzodioxin-6-yl)phenyl]-1H-pyrazole-4-carboxamide] | 100% | 98% | 100% | – | – | 100% | 100%
